Source: patent US20240382555A1, “PEPTIDES WITH ANTI-ANGIOGENIC ACTIVITY” (priority 2021, published 2024)

Key:
Assay type in all cases: cell-based, human
HUVECs [1] = assay: Tube formation assay, HUVECs on growth factor-reduced Matrigel with pro-angiogenic stimuli; details: for anti-angiogenic activity (number of tubes/well): HUVECs, 50 ng/ml VEGF-A or FGF-2, 10 ng/ml peptide, FIG. 5
Description: Tube formation assays were performed as described in Caccuri F. et al., “Evolution toward beta common chain receptor usage links the matrix proteins of HIV-1 and its ancestors to human erythropoietin,” Proc Natl Acad Sci USA. 2021; 11810.
Briefly, 150 μl of Cultrex Basement Membrane Extract (Matrigel; 10 mg/ml) (Trevigen Inc., Gaithersburg, MD, USA) or reduced growth factor Matrigel (Trevigen Inc.) were transferred to prechilled 48-well culture plates. The plates were then incubated for 1 h at 37° C.
Cells were resuspended in EGM growth medium containing 10% FBS and seeded (5×10^4 per well). […] Capillary structures were photographed with a Hitachi KP-D50 camera and then quantified as the number of tubes/well.
In some experiments, HUVECs were stimulated with optimal concentrations of human pro-angiogenic molecules such as vascular endothelial growth factor-A (VEGF-A), fibroblast growth factor-2 (FGF-2), or interleukin-8 (IL-8). Experiments were conducted using nucleofected cells or cells stimulated with U94-derived peptides.
To evaluate the ability of the peptide of sequence SEQ ID No. 2 to influence the ability of HUVECs to respond to stimulation exerted by different angiogenic mediators, HUVECs were seeded on growth-reduced Matrigel in the absence (NT) or presence of optimal concentrations of different pro-angiogenic stimuli (VEGF-A, FGF-2, or IL-8) alone or in the presence of a control peptide (CTRL) or of the peptide of sequence SEQ ID No. 2 (KDKY).
HUVECs were seeded on reduced growth factor Matrigel-coated wells wells in complete medium containing 50 ng/ml of VEGF-A or FGF-2 alone or in combination with 10 ng/ml of the control peptide (CTRL), or KDKY, AKDY, KAKY, KDAY or KDKA.
HUVECs were seeded on reduced growth factor Matrigel-coated wells in complete medium containing 50 ng/ml of VEGF-A or FGF-2 alone or in combination with 10 ng/ml of CTRL, KDKY, DKY or DRY.

[2] = tested on: SARS-CoV-2-infected HL-mECs; details: SARS-CoV-2-infected spheroids; FIG. 4
HUVECs [3] = assay: Spheroids assay, HUVEC spheroids in type I collagen gel with pro-angiogenic stimuli; details: HUVEC spheroids stimulated with VEGF-A, FGF-2 or IL-8; FIG. 2
Description: The assay was performed using nucleofected cells or cells stimulated with U94-derived peptides. Spheroids were generated by mixing HUVECs (1.5×10^5 cells/ml) with 5 mg/ml methylcellulose (Sigma-Aldrich) in EGM growth medium containing 10% FBS, bringing the final volume to 10 ml.
The cells (100 μl/well) were then added to 96-well plates (Greiner Bio-one, Kremsmünster, Austria) and incubated at 37° C., in a 5% CO2 atmosphere for 24 hours.
Separately, the collagen I gel solution (Rat Tail, Corning) was maintained on ice and neutralized by adding NaOH 0.1 M and PBS 10× to a final pH of 7.4.
Then, 24-well plates were coated with neutralized collagen (200 μl/well) and incubated in a humidified 5% CO2 incubator for 1 hour at 37° C.
The spheroids from the 96-well plates were collected in Eppendorf tubes and centrifuged at 4000×rpm for 5 to 10 seconds. When a clear pellet was distinguished, the supernatant was removed and the pellet was kept in a volume of about 100 μl of collagen I-neutralized solution.
Each collagen-spheroid mixture was rapidly added to pre-coated 24-well plates at 100 μl/well and incubated for 1 h. […]
Sprouting occurred from the spheroid core, which was photographed with a Hitachi KP-D50 camera, and the sprout number was counted with the spheroids similar sizes from three different wells of the plate. […]

[4] = tested on: SARS-CoV-2-infected HL-mECs; details: growth factor-reduced Matrigel; MOI 1; FIG. 3

Row | Substance | anti-angiogenic activity (number of tubes/well) (HUVECs [1]) | angiogenic activity (tube formation, number of tubes/well) (HUVECs [1]; HUVECs stimulated with VEGF-A, FGF-2 or IL-8, 8 hours after seeding on Matrigel, FIG. 1) | SARS-CoV-2-induced angiogenesis (number of sprouts per spheroid) [2] | sprouting response (number of sprouts per spheroid) (HUVECs [3]) | angiogenic activity (number of tubes/well) of SARS-CoV-2-infected HL-mECs [4]
1 | ADKY [tetra-peptide, first amino acid of KDKY replaced by alanine] | maintained potent anti-angiogenic activity |  |  |  | 
2 | DKY | able to block angiogenic activity |  |  |  | 
3 | DRY | able to block angiogenic activity |  |  |  | 
4 | KDKY [SEQ ID No. 2] | able to block angiogenic activity | significantly impaired | potently inhibited | drastic reduction in the sprouting response | did not perform any angiogenic activity
